The results in this text go back to patent US20150166523A1, “BRANCHED CHAIN ALKYL HETEROAROMATIC RING DERIVATIVE” (TAISHO PHARMACEUTICAL CO., LTD., priority 2012, published 2015).

pIC50: −log10 of the molar value.

Experiment [1] concerns the target T1, human orexin-1 receptor (hOX1R) (Homo sapiens, UniProt O43613).
T1 construct: expressed in transfected cells; host or cells: Chinese hamster ovary (CHO) cells
T1 sequence (O43613 1-425): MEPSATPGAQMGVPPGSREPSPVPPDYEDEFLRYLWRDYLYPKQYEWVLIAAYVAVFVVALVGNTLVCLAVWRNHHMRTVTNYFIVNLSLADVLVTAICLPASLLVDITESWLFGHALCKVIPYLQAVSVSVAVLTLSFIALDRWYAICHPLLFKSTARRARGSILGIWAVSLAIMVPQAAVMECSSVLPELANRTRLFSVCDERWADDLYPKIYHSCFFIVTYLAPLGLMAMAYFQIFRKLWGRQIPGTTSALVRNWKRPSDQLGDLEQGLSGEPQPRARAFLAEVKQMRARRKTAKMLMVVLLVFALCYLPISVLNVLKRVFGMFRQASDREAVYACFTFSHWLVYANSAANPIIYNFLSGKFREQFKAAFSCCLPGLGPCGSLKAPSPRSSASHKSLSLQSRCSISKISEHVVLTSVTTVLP
The experiment can be described thus: Measurement of orexin antagonistic activity (intracellular Ca2+ fluorescence, FDSS) on hOX1R. The class given is cell-based. As to conditions: CHO cells forcibly expressing hOX1R; Fluo-4AM; ligand peptide (substituted human orexin-A) 300 pM; compound preincubated 30 minutes; read-out: IC50 Value OX1. Put shortly: (§1)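 CHO cells stably expressing hOX1R or hOX2R, loaded with 0.5 μM Fluo-4AM in HEPES/HBSS buffer with 0.1% BSA and 2.5 mM probenecid, pH 7.4, then preincubated 30 min with compound. Fluorescence recorded each second for 3 min by FDSS; maximum intensity taken as intracellular Ca2+ indicator of antagonism.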

In experiment [2] the target is T2, orexin-2 receptor (hOX2R) (Homo sapiens, UniProt O43614).
T2 construct: expressed in transfected cells; host or cells: Chinese hamster ovary (CHO) cells
T2 sequence (O43614 1-444): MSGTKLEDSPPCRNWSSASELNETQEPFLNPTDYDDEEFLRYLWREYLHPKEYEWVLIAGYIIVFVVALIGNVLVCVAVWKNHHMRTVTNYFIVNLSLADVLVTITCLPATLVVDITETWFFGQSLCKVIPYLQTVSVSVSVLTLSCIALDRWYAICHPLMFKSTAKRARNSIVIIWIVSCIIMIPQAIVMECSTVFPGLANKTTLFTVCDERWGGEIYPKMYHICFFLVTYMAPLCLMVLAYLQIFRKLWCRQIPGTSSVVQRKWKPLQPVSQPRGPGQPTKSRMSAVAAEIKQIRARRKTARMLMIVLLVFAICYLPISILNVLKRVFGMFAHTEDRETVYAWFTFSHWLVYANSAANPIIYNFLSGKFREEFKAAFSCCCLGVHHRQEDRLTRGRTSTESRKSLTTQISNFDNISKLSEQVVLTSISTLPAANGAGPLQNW
The experiment is described as follows: Measurement of orexin antagonistic activity (intracellular Ca2+ fluorescence, FDSS) on hOX2R. The class given is cell-based. As to conditions: CHO cells forcibly expressing hOX2R; Fluo-4AM; ligand peptide (substituted human orexin-A) 3 nM; compound preincubated 30 minutes; read-out: IC50 Value OX2. The gist of the method: as §1

As usually defined, the pIC50 is the IC50 on a negative log10 scale, so that one unit is a factor of ten.

With `CCN(C(=O)c1ccccc1-c1ncccn1)[C@@H](C)Cn1ccc(-c2ccc(F)cc2)n1` [Example 10, N-Ethyl-N-[(2S)-1-[3-(4-fluorophenyl)-1H-pyrazol-1-yl]propan-2-yl)-2-(pyrimidin--2-yl) benzamide], the negative logarithm of the IC50 (pIC50) in experiment [1] was 9.70; in experiment [2], 7.89.
Consider `CCN(C(=O)c1cc(F)ccc1-n1nccn1)[C@@H](C)Cc1noc(-c2ccc(F)cn2)n1` [Example 57, N-Ethyl-5-fluoro-N-{(2S)-1-[5-(5-fluoropyridin-2-yl)-1,2,4-oxadiazol-3-yl]propan-2-yl}-2-(2H-1,2,3-triazol-2-yl) benzamide], for which the pIC50 in experiment [1] is 8.29; in experiment [2], 5.97.
For `CCN(C(=O)c1cc(F)ccc1-c1ncccn1)[C@@H](C)Cn1cc(-c2ccc(F)cc2)cn1` [Example 30, N-Ethyl-5-fluoro-N-{(2S)-1-[4-(4-fluorophenyl)-1H-pyrazol-1-yl]propan-2-yl}-2-(pyrimidin-2-yl)benzamide], in that order: 8.92 and 7.45.
On to `Cc1ccc(-c2ncccn2)c(C(=O)N(C)[C@@H](C)Cc2noc(-c3ccc(F)cc3)n2)c1` [Example 60, N-{(2S)-1-[5-(4-Fluorophenyl)-1,2,4-oxadiazol-3-yl]propan-2-yl}-N,5-dimethyl-2-(pyrimidin-2-yl)benzamide], for which the pIC50 is 8.89 in experiment [1] and 7.35 in experiment [2].
For the molecule `Cc1ccc(-c2ncccn2)c(C(=O)N(C)[C@@H](C)Cn2ccc(-c3ccc(F)cn3)n2)c1` [Example 6, N-{(2S)-1-[3-(5-Fluoropyridin-2-yl)-1H-pyrazol-1-yl]propan-2-yl}-N,5-dimethyl-2-(pyrimidin-2-yl) benzamide], the pIC50 in experiment [1] is 8.92; in experiment [2], 8.08.
On to `CCN(C(=O)c1cc(C)ccc1-n1nccn1)[C@@H](C)Cn1cc(-c2ccc(F)cn2)nn1` [Example 82, N-Ethyl-N-{(2S)-1-[4-(5-fluoropyridin-2-yl)-1H-1,2,3-triazol-1-yl]propan-2-yl}-5-methyl-2-(2H-1,2,3-triazol-2-yl)benzamide], for which the pIC50 in experiment [1] is 8.66; in experiment [2], 7.88.
In the same order, the values of `Cc1ccc(-n2nccn2)c(C(=O)N(CCS(C)(=O)=O)[C@@H](C)Cn2cc(-c3ccc(F)cc3)nn2)c1` [Example 90, N-{(2S)-1-[4-(4-Fluorophenyl)-1H-1,2,3-triazol-1-yl]propan-2-yl}-5-methyl-N-[2-(methylsulfonyl)ethyl]-2-(2H-1,2,3-triazol-2-yl)benzamide] are 7.63 and 5.68.
For `CCN(C(=O)c1ccc(F)cc1-c1ncccn1)[C@@H](C)Cn1ccc(-c2ccc(F)cc2)n1` [Example 14, N-Ethyl-4-fluoro-N-[(2S)-1-[3-(4-fluorophenyl)-1H-pyrazol-1-yl]propan-2-yl)-2-(pyrimidin-2-yl)benzamide], in that order: 8.89 and 8.15.
Turning to `CCN(C(=O)c1nc(C)ccc1-n1nccn1)[C@@H](C)Cn1ccc(-c2ccc(F)cc2)n1` [Example 3, N-Ethyl-N-[(2S)-1-[3-(4-fluorophenyl)-1H-pyrazol-1-yl]propan-2-yl]-6-methyl-3-(2H-1,2,3-triazol-2-yl) pyridine-2-carboxamide], the pIC50 in experiment [1] is 9.00; in experiment [2], 8.35.
On to `COCCN(C(=O)c1cc(C)ccc1-n1nccn1)[C@@H](C)Cn1ccc(-c2ccc(F)cc2)n1` [Example 39, N-{(2S)-1-[3-(4-Fluorophenyl)-1H-pyrazol-1-yl]propan-2-yl}-N-(2-methoxyethyl)-5-methyl-2-(2H-1,2,3-triazol-2-yl)benzamide], for which the results for the pIC50 in experiment [1] and in experiment [2] were 8.92 and 8.26, respectively.
For `CCN(C(=O)c1cc(C)ccc1-n1nccn1)[C@@H](C)Cn1cc(-c2ccc(F)c(OC)c2)nn1` [Example 99, N-Ethyl-N-{(2S)-1-[4-(4-fluoro-3-methoxyphenyl)-1H-1,2,3-triazol-1-yl]propan-2-yl}-5-methyl-2-(2H-1,2,3-triazol-2-yl)benzamide], in that order: 8.74 and 8.82.
For the molecule `Cc1ccc(-n2nccn2)c(C(=O)N(CCO)[C@@H](C)Cn2ccc(-c3ccc(F)cc3)n2)c1` [Example 42, N-{(2S)-1-[3-(4-Fluorophenyl)-1H-pyrazol-1-yl]propan-2-yl}-N-(2-hydroxyethyl)-5-methyl-2-(2H-1,2,3-triazol-2-yl)benzamide], the negative-log IC50 (pIC50) in experiment [1] is 8.96; in experiment [2], 7.66.
For `Cc1ccc(-n2nccn2)c(C(=O)N(C)[C@@H](C)Cn2cc(-c3ccc(F)c(F)c3)cn2)n1` [Example 29, N-{(2S)-1-[4-(3,4-Difluorophenyl)-1H-pyrazol-1-yl]propan-2-yl}-N,6-dimethyl-3-(2H-1,2,3-triazol-2-yl)pyridine-2-carboxamide], in that order: 8.00 and 7.59.
Take `CCN(C(=O)c1cc(C)ccc1-n1nccn1)C(C)Cc1ccn(-c2ccc(F)cn2)n1` (stereo not drawn) [Example 75, N-Ethyl-N-{1-[1-(5-fluoropyridin-2-yl)-1H-pyrazol-3-yl]propan-2-yl}-5-methyl-2-(2H-1,2,3-triazol-2-yl) benzamide]: the pIC50 was 8.85 in experiment [1] and 8.77 in experiment [2].
For `COCCN(C(=O)c1cc(C)ccc1-n1nccn1)[C@@H](C)Cn1nnc(-c2ccc(F)cc2)n1` [Example 63, N-{(2S)-1-[5-(4-Fluorophenyl)-2H-tetrazol-2-yl]propan-2-yl}-N-(2-methoxyethyl)-5-methyl-2-(2H-1,2,3-triazol-2-yl)benzamide], in that order: 8.66 and 7.17.
Consider `CCN(C(=O)c1nc(C)ccc1-c1ncccn1)[C@@H](C)Cc1noc(-c2ccc(F)cc2)n1` [Example 52, N-Ethyl-N-{(2S)-1-[5-(4-fluorophenyl)-1,2,4-oxadiazol-3-yl]propan-2-yl}-6-methyl-3-(pyrimidin-2-yl)pyridine-2-carboxamide], for which the pIC50 in experiment [1] is 8.04; in experiment [2] it was 6.43.
For `CCN(C(=O)c1ccccc1-c1ncccn1)[C@@H](C)Cc1noc(-c2ccc(F)cc2)n1` [Example 54, N-Ethyl-N-{(2S)-1-[5-(4-fluorophenyl)-1,2,4-oxadiazol-3-yl]propan-2-yl}-2-(pyrimidin-2-yl)benzamide], in that order: 8.70 and 7.12.
On to `CCN(C(=O)c1cc(C)ccc1-n1nccn1)[C@@H](C)Cc1nnc(-c2ccc(F)cc2)o1` [Example 76, N-Ethyl-N-{(2S)-1-[5-(4-fluorophenyl)-1,3,4-oxadiazol-2-yl]propan-2-yl}-5-methyl-2-(2H-1,2,3-triazol-2-yl)benzamide], for which the pIC50 in experiment [1] was 9.00; in experiment [2], 7.22.
